Measurements from ChEMBL document CHEMBL5550130, “Discovery of harmiprims, harmine-primaquine hybrids, as potent and selective anticancer and antimalarial compounds” (Bioorg Med Chem, 2024).
Calls of active or inactive are those of the source. The calls are words filed in the database; no cut-off is given here.

Key:
HepG2 = assay: Antiproliferative activity against human HepG2 cells assessed as reduction in cell viability incubated for 72 hrs by MTT assay; assay type: functional, cell-based; conditions: HepG2, 72 h
[1] = Selectivity index, ratio of IC50 for antiproliferative activity against human HEK293T cells to IC50 for antiproliferative activity against human MCF7 cells; assay type: toxicity, cell-based; conditions: HEK293T cells versus MCF7 cells, read-out: Ratio IC50
Plasmodium falciparum [2] = assay: Resistance index, ratio of IC50 for antiplasmodial activity against erythrocytic stage of chloroquine-resistant Plasmodium falciparum Dd2 to IC50 for antiplasmodial activity against erythrocytic stage of chloroquine-sensitive Plasmodium falciparum 3D7; assay type: functional
Plasmodium falciparum [3] = assay: Antiplasmodial activity against erythrocytic stage of chloroquine-sensitive Plasmodium falciparum 3D7 assessed as inhibition of parasite growth incubated for 3 days by HRP2-ELISA; assay type: functional, organism-based; conditions: 3D7, 72 h
Plasmodium falciparum [4] = assay: Antiplasmodial activity against erythrocytic stage of chloroquine-resistant Plasmodium falciparum Dd2 assessed as inhibition of parasite growth incubated for 3 days by HRP2-ELISA; assay type: functional, organism-based; conditions: Dd2, 72 h
[5] = Antiproliferative activity against human HEK293T cells assessed as reduction in cell viability incubated for 72 hrs by MTT assay; assay type: toxicity, cell-based, HEK-293T
MCF7 [6] = assay: Antiproliferative activity against human MCF7 cells assessed as reduction in cell viability incubated for 72 hrs by MTT assay; assay type: functional, cell-based; conditions: MCF7, 72 h
[7] = Selectivity index, ratio of IC50 for antiproliferative activity against human HEK293T cells to IC50 for antiplasmodial activity against erythrocytic stage of chloroquine-sensitive Plasmodium falciparum 3D7; assay type: toxicity, cell-based; conditions: read-out: Ratio IC50
SW-620 = assay: Antiproliferative activity against human SW620 cells assessed as reduction in cell viability incubated for 72 hrs by MTT assay; assay type: functional, cell-based; conditions: SW-620, 72 h
HCT-116 = assay: Antiproliferative activity against human HCT-116 cells assessed as reduction in cell viability incubated for 72 hrs by MTT assay; assay type: functional, cell-based; conditions: HCT-116, 72 h
MCF7 [8] = assay: Induction of cell cycle arrest in human MCF7 cells assessed as increase in accumulation of cells at G2/M phase at 4.5 uM measured upto 48 hrs by propidium iodide/RNAse A staining based cell sorter analysis; assay type: functional
Plasmodium berghei [9] = assay: Antiplasmodial activity against hepatic stage of Plasmodium berghei sporozoites infected in human Huh-7 cells assessed as reduction in parasite growth at 1 uM incubated for 1 hr by bioluminescence assay; assay type: functional, organism-based
Calf thymus DNA [10] = assay: Binding affinity to calf thymus DNA assessed as binding constant by UV-Visible absorption spectroscopic analysis; conditions: Bos taurus
RNA [11] = assay: Binding affinity to double stranded RNA (unknown origin) by CD spectroscopic analysis; assay type: nucleic-acid assay
RNA [12] = assay: Binding affinity to double stranded RNA (unknown origin) assessed as thermal stabilization by thermal denaturation based UV-Visible absorption spectroscopic analysis; assay type: nucleic-acid assay
Plasmodium berghei [13] = assay: Antiplasmodial activity against hepatic stage of Plasmodium berghei sporozoites infected in human Huh-7 cells assessed as inhibition of parasite growth incubated for 1 hr by bioluminescence assay; assay type: functional, organism-based; conditions: Huh-7, 1 h
dsDNA [14] = assay: Binding affinity to double stranded DNA (unknown origin) by CD spectroscopic analysis; assay type: nucleic-acid assay
Plasmodium berghei [15] = assay: Antiplasmodial activity against hepatic stage of Plasmodium berghei sporozoites infected in human Huh-7 cells assessed as reduction in parasite growth at 10 uM incubated for 1 hr by bioluminescence assay; assay type: functional, organism-based
RNA [16] = assay: Binding affinity to double stranded RNA (unknown origin) assessed as binding constant by UV-Visible absorption spectroscopic analysis; assay type: nucleic-acid assay
Calf thymus DNA [17] = assay: Binding affinity to calf thymus DNA assessed as thermal stabilization by thermal denaturation based UV-Visible absorption spectroscopic analysis; conditions: Bos taurus
RNA [18] = assay: Binding affinity to double stranded RNA (unknown origin) assessed as increase in fluorescence intensity by fluorescence quenching analysis; assay type: nucleic-acid assay
MCF7 [19] = assay: Induction of cell cycle arrest in human MCF7 cells assessed as increase in accumulation of cells at G1 phase at 4.5 uM measured upto 48 hrs by propidium iodide/RNAse A staining based cell sorter analysis; assay type: functional
dsDNA [20] = assay: Binding affinity to double stranded DNA (unknown origin) assessed as increase in fluorescence intensity by fluorescence quenching analysis; assay type: nucleic-acid assay
[21] = Drug uptake in human MCF7 cells at 10 uM incubated for 30 mins by fluorescence microscopic analysis; assay type: ADME, cell-based; conditions: mcf7, 0.5 h

SMILES | IC50 (HepG2) | selectivity ratio [1] | Ratio IC50 (Plasmodium falciparum [2]) | IC50 (Plasmodium falciparum [3]) | IC50 (Plasmodium falciparum [4]) | IC50 at 72 h [5] | IC50 (MCF7 [6]) | selectivity ratio [7] | IC50 (SW-620) | IC50 (HCT-116) | also measured
COc1cc(NC(C)CCCn2cc(-c3nccc4c3[nH]c3ccccc34)nn2)c2ncccc2c1 (stereo not drawn) | > 50 µM | < 0.51 | 1.77 | 2.52 µM | 4.48 µM | 25.3 µM | > 50 µM | 10 | 14.1 µM | 10.2 µM | 
COc1cc(NC(C)CCCn2cc(Cn3c4cc(OC)ccc4c4ccnc(C)c43)nn2)c2ncccc2c1 (stereo not drawn) | > 50 µM | > 5.6 | 1.73 | 0.523 µM | 0.906 µM | > 50 µM | 8.93 µM | > 95.5 | > 50 µM | 23.2 µM | Activity (MCF7 [8]): inactive; Activity (Plasmodium berghei [9]): Active; log Ks (Calf thymus DNA [10]): 5.5; Activity (RNA [11]): inactive; Activity (RNA [12]): inactive; IC50 (Plasmodium berghei [13]): 1.46 µM; Activity (dsDNA [14]): inactive; Activity (Plasmodium berghei [15]): Active; log Ks (RNA [16]): 4.6; Activity (Calf thymus DNA [17]): inactive; Activity (RNA [18]): Active; Activity (MCF7 [19]): Active; Activity (dsDNA [20]): Active; Drug uptake [21]: Active
COc1cc(NC(C)CCCn2cc(COc3ccc4c(c3)[nH]c3c(C)nccc34)nn2)c2ncccc2c1 (stereo not drawn) | 7.87 µM | 1.28 | 1.67 | 0.211 µM | 0.353 µM | 7.62 µM | 5.93 µM | 36 | 6.99 µM | 7.31 µM | 
COc1cc(NC(C)CCCNC(=O)NCCOc2ccc3[nH]c4c(C)nccc4c3c2)c2ncccc2c1 (stereo not drawn) | 10.9 µM | 0.84 | 0.83 | 10.7 µM | 8.84 µM | 12 µM | 14.2 µM | 1.1 | 10.6 µM | 7.79 µM | 
COc1cc(NC(C)CCCNC(=O)NCCOc2ccc3c(c2)[nH]c2c(C)nccc23)c2ncccc2c1 (stereo not drawn) | 7.97 µM | 0.86 | 1.2 | 6.77 µM | 8.07 µM | 7.63 µM | 8.87 µM | 1.1 | 7.59 µM | 7.71 µM | 
COc1cc(NC(C)CCCNC(=O)NCc2cc3c([nH]c4ccccc43)c(C)n2)c2ncccc2c1 (stereo not drawn) | > 50 µM | > 4.29 | 0.98 | 2.4 µM | 2.35 µM | > 50 µM | 11.7 µM | > 20.8 | 25 µM | 27.2 µM | 
COc1cc(NC(C)CCCN)c2ncccc2c1 (stereo not drawn) [PRIMAQUINE] |  | 1.42 | 1.12 | 4.87 µM | 5.45 µM | 37.6 µM | 26.6 µM | 7.7 | 9.2 µM | 20.8 µM | 
COc1cc(NC(C)CCCNC(=O)NCCn2c3cc(OC)ccc3c3ccnc(C)c32)c2ncccc2c1 (stereo not drawn) | 12.3 µM | 1.39 | 1.57 | 0.702 µM | 1.1 µM | 12.7 µM | 9.15 µM | 18.1 | 9.93 µM | 10.6 µM | 
